Measurements taken from patent US9284322B2, “Nicotinic receptor compounds” (priority 2010, dated 2016).
Read-outs that look alike come from different tables or passages of the source.

Key:
mice [1] = type: in vivo, mouse; conditions: antagonist test
Protocol: (§1) Mice were placed into a 10 cm wide glass cylinder on a hot plate (Thermojust Apparatus) maintained at 55.0° C. Two control latencies at least […] apart were determined for each mouse. […] Antinociceptive response was calculated as percent maximum possible effect (% MPE), where % MPE=[(test−control)/40−control)×100]. The reaction time was scored when the animal jumped or licked its paws.
(§2) Table 6 provides data for a number of compounds of the invention that were tested according to the assays described above.

mice [2] = type: in vivo, mouse
Protocol: (§3) Antinociception was assessed by the tail-flick method of F. E. D'Amour and D. L. Smith (J. Pharmacol. Exp. Ther. 1941, 72, 74-79). A control response (2-4 sec) was determined for each mouse before treatment, and a test latency was determined after drug administration. In order to minimize tissue damage, a maximum latency of 10 sec was imposed. Antinociceptive response was calculated as percent maximum possible effect (% MPE), where % MPE=[(test−control)/(10−control)]×100. Groups of eight to twelve animals were used for each dose and for each treatment. […] Eight to twelve mice were treated per dose and a minimum of four doses were performed for dose-response curve determination.
as §2

mice [3] = test: animal or person; type: in vivo, mouse; conditions: @ 10 mg/kg, mice, s.c.
Protocol: as §3

mice [4] = test: animal or person; type: in vivo, mouse; conditions: @ 10 mg/kg, mice, s.c.; remark: listed apart in the source
Protocol: Mice were placed into a 10 cm wide glass cylinder on a hot plate (Thermojust Apparatus) maintained at 55.0° C. Two control latencies at least […] apart were determined for each mouse. The normal latency (reaction time) was 8 to 12 sec. Antinociceptive response was calculated as percent maximum possible effect (% MPE), where % MPE=[(test−control)/40−control)×100]. The reaction time was scored when the animal jumped or licked its paws.

mice [5] = test: animal or person; type: in vivo, mouse; conditions: Mus musculus, sc, 0.5 h; mice, s.c., rectal temperature 30 min after injection; read-out: ED50 Hypothermia
Protocol: Rectal temperature was measured by a thermistor probe (inserted 24 mm) and digital thermometer (Yellow Springs Instrument Co., Yellow Springs, Ohio). […] The difference in rectal temperature before and after treatment was calculated for each mouse. The ambient temperature of the laboratory varied from 21-24° C. from day to day.

mice [6] = test: animal or person; type: in vivo, mouse; conditions: Mus musculus, sc; mice, s.c., 5 min after administration, recorded for 10 min; read-out: ED50 Spontaneous Activity
Protocol: (§4) Interruptions of the photocell beams (two banks of eight cells each) were then recorded for the next 10 min. Data were expressed as number of photocell interruptions.

mice [7] = test: Functional agonist tests (nAChR animal assays); conditions: mouse, in vivo
Protocol: as §3, §1, §4
Rectal temperature was measured by a thermistor probe (inserted 24 mm) and digital thermometer (Yellow Springs Instrument Co., Yellow Springs, Ohio). […]

## c1cnc2cc3c(cc2n1)[C@@H]1CNC[C@H]3C1 [varenicline, reference compound]
Mice [1]
  AD50 Hot Plate: 0.47 mg/kg
Mice [2]; mice, antagonist test
  AD50 Tail Flick: 0.0002 mg/kg
Mice [2]; mouse, in vivo
  functional antagonism in the tail-flick test (in words): functional antagonists
Mice [3]
  Tail Flick, % effect at dose (ED50 column): 11% @ 10
Mice [4]
  Hot Plate, % effect at dose (ED50 column): 10% @ 10
Mice [5]
  ED50: 2.8 mg/kg
Mice [6]
  ED50: 2.1 mg/kg
Mice [7]
  activity in one or more of the functional agonist tests (in words): partial agonists
